Measurements published in patent US12527830B2, “Method for treating and preventing ulcerative colitis and method for DAI reduction” (BEIJING WEHAND-BIO PHARMACEUTICAL CO., LTD, priority 2022, dated 2026).

System: UC model mice
Assay: 3% DSS-induced ulcerative colitis model in mice: colon length, body weight, Disease Activity Index (DAI)
Type: in vivo
Details: positive drug group, 500 mg/kg/d by gavage, 3% DSS mice
Experimental: Mice aged 6-8 weeks were adaptively kept in an animal house for 3 days. After weighing, they were randomly divided into 8 groups (counted as Day 0), with 5-6 mice in each group. Experimental grouping was as follows: group 1, normal control; group 2, model; group 3, positive control; and groups 4-8, SZ-A with different administration doses, respectively. 3% DSS was formulated as follows: 3 g of DSS (Dextran Sulfate Sodium Salt) was dissolved in 100 mL of sterile water; The mulberry twig extract as prepared in Preparative Example 1 was formulated at different concentrations and dissolved in 1% CMC solution; Drug as positive control: Sulfasalazine Enteric-Coated Tablets (NMPN H31020557). On the day when grouping was done, the mice in group 8, SZ-A-5 (pretreatment) group, were administered with a mulberry twig extract by oral gavage (see the following table for dosages) once a day. All groups are normally available to food and water. […] After 5 days from the start of modelling, the access to 3% DSS was stopped, and all groups had normal drinking water instead, with the administration done normally. The mice were administered continuously and observed for 10 days, and euthanized by cervical dislocation. The colons of the mice were removed by dissection, and the lengths of the colons were measured and photographed. During the administration, the weights of the mice in each group were measured. During the modelling and administration, stool texture and blood in stool of the mice were monitored daily, and Disease Activity Index, DAI, for the mice was scored according to Table 2 below. [table] [table] • Note: DAI=Score for Weight Loss+Score for Stool Texture+Score for Fecal Occult Blood; Normal Stool: Shaped Stool; Mushy Stool: Pasty, Semi-Shaped Stool without Adhering to Anus; Liquid Stool: Thin, Watery Stool that may Adhere to Anus. Disease Activity Index (DAI) scores for mice were compared using the mulberry twig extracts in each preparative example with reference to the experimental steps in sections 1.1-1.3 above. […]

O=C(O)c1cc(N=Nc2ccc(S(=O)(=O)Nc3ccccn3)cc2)ccc1O [positive drug, 5-[p-(2-pyridylsulfamoyl)phenylazo]salicylic acid]
inhibition of colonic atrophy (colon length) compared with model group (FIG. 1-2): significantly inhibited colonic atrophy | inhibition of weight loss compared with model group (FIG. 3): inhibit weight loss | reduction of Disease Activity Index, DAI, compared with model group (FIG. 4): reduce Disease Activity Index
